According to patent US20150225404A1, “PYRIDINE DERIVATIVE AND MEDICINE” (NIPPON SHINYAKU CO., LTD., priority 2012, published 2015):
pIC50: −log10 of the molar value. Where two headings read alike, the source gives them in different places.

Tests used:
human mGluR5 = biological target: T1, human mGluR5 (Homo sapiens, UniProt P41594); assay: Experiment for receptor function of mGluR5 (Ca2+-dependent fluorescence, FLIPR, CHO-K1 cells stably expressing human mGluR5); format: cell-based; conditions: L-glutamic acid 10 μM, Fluo-4 fluorescence
T1 construct: expressed in transfected cells
Procedure, shortened: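 Fluo-4-loaded CHO-K1 cells pre-incubated 2 min with test substance, then stimulated with L-glutamic acid (final 10 μM) in HBSS, pH 7.4. FLIPR Ca2+ fluorescence normalized to glutamate alone (100%) and glutamate with 10 μM MPEP (0%); IC50 estimated by logistic fit.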

male Slc:ICR mice [1] = assay: Action against formalin-induced pain behavior in mice; format: in vivo; conditions: Mus musculus, iv, 0.1 h; 5% formalin; test substance 1 mg/kg intravenously; 6 minutes observation; read-out: Percent inhibition of pain-related behavior time (%)
Experimental: 4 to 6-week-old male Slc:ICR mice (available from Japan SLC, Inc.) were used. A medium or a test substance (1 mg/kg or 3 mg/kg) was intravenously administered to each mouse, and immediately thereafter, 20 μL of 1% or 5% formalin was subcutaneously administered to a right hind paw of the mouse. Thereafter, the mice were quickly put into an observation cage and measured for the total time (sec) of pain-related behavior (licking or biting behavior against the right hindlimb) during 6 minutes, and an average value of the pain-related behavior time of each group was calculated.
The intensity of an analgesic action of the test substance was evaluated in terms of percent inhibition (%) of pain-related behavior time which is calculated as {(A−B)/A×100}, wherein A is an average value of the pain-related behavior time of a medium-administered group, and B is an average value of the pain-related behavior time of a test substance-administered group.

male Slc:ICR mice [2] = assay: Action against pain-related behavior and micturition cycle in mice with cyclophosphamide (CP)-induced acute cystitis; format: in vivo; conditions: Mus musculus, iv, 0.25 h, CP 300 mg/kg i.p., test substance 3 mg/kg intravenously 3 hours after CP, 15 minutes observation
Experimental: An action of a test substance against visceral pain and frequent urination associated with cystitis, which was induced by intraperitoneal administration (20 mL/kg) of CP (300 mg/kg) to 4 to 5-week-old male Slc:ICR mice (available from Japan SLC, Inc.), was investigated. This experiment was performed according to a method described in European Journal of Pharmacology, 676 (2012), pp. 75-80.
Three hours after the administration of CP, a test substance (1 mg/kg or 3 mg/kg) was intravenously administered, and observation by visual inspection and video recording were performed for 15 minutes immediately thereafter. In the observation by visual inspection, four pain-related behaviors (eye opening, rounded back, leg dragging, and behavior during urination) were scored, each rated on a scale of 0-10, according to the following criteria.
Eye opening (normal: 0 point, sometimes closed or half-open eyes: 5 points, completely closed: 10 points)
Rounded back (normal: 0 point, sometimes crouched: 5 points, crouched at almost all times: 10 points)
Leg dragging (normal: 0 point, leg dragging: 10 points)
Behavior during urination (normal: 0 point, shaking hip in micturition: 10 points)
In addition, the video was played back, and the frequency of licking behavior around the abdomen as a pain-related behavior was scored, rated on a scale of 0-10, according to the following criteria.
Licking behavior around the abdomen (0 to 3 times: 0 point, 4 times to 10 times: 5 points, 11 times or more: 10 points)
Furthermore, the video was played back, and the frequency of urination (urination marks) on a filter paper was counted and taken as an index for micturition cycle.
An average value of the pain-related behavior score of each group (total score of the five items: 50 points at maximum) and an average value of the frequency of urination (urination marks) on the filter paper were determined.
The strength of an analgesic action of the test substance against the CP-induced visceral pain was evaluated in terms of percent inhibition (%) of pain-related behavior score which is calculated as {(A−B)/A×100}, wherein A is an average value of the pain-related behavior score of a medium-administered group, and B is an average value of the pain-related behavior score of a test substance-administered group.
In addition, the strength of a frequent urination inhibitory action of the test substance against the CP-induced frequent urination was evaluated in terms of percent inhibition (%) of the frequency of urination which is calculated as {(C−D)/C×100}, wherein C is an average value of the frequency of urination of a medium-administered group, and D is an average value of the frequency of urination of a test substance-administered group.

T1 sequence (P41594 21-1212): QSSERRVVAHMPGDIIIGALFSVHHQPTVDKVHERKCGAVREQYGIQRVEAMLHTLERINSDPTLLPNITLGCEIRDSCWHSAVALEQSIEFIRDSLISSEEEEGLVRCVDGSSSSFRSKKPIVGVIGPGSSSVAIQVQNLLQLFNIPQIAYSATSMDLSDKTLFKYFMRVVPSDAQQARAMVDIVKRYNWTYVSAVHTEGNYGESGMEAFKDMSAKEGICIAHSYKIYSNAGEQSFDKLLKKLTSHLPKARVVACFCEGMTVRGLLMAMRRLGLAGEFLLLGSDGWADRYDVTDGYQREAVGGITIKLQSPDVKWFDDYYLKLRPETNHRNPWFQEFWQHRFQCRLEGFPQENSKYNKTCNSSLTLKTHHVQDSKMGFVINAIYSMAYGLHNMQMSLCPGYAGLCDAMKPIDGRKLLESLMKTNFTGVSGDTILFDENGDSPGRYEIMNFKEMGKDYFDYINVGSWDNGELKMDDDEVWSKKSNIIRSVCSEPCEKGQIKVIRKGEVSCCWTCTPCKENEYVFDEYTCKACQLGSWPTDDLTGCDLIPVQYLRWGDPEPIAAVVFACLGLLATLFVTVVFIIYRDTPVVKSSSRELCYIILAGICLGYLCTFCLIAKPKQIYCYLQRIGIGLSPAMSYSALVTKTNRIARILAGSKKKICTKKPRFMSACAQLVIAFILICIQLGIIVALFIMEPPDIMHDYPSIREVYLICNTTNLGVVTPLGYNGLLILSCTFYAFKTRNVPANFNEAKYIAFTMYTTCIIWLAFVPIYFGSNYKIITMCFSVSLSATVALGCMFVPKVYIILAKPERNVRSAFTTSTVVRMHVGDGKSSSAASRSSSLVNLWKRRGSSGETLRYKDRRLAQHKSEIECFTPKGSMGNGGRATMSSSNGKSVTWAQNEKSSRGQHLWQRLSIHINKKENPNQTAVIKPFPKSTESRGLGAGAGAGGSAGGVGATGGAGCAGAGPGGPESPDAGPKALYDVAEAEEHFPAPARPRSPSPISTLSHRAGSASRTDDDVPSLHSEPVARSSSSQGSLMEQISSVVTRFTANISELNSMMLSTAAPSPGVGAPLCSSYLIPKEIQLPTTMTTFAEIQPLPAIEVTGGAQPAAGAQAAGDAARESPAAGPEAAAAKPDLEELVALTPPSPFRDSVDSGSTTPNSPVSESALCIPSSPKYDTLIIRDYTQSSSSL

pIC50 (human mGluR5): 6.88
Compound: Cc1cncc(-c2cc(OCc3ncccc3F)nc3c2CCCC3)n1 [Example 214, 2-[(3-Fluoropyridin-2-yl)methoxy]-4-(6-methylpyrazin-2-yl)-5,6,7,8-tetrahydroquinoline]
inhibition in vivo at 1 mg/kg (male Slc:ICR mice [1]): 55.3% | inhibition in vivo at 3 mg/kg (male Slc:ICR mice [2]; read-out: Percent inhibition of pain-related behavior score (%)): 44.2% | inhibition in vivo at 3 mg/kg (male Slc:ICR mice [2]; read-out: Percent inhibition of the frequency of urination (%)): 25.3%
